The values below come from patent publication US20260263429A1, “INHIBITORS OF CA 2+/CALMODULIN-DEPENDENT PROTEIN KINASE II (CAMKII) THAT DO NOT INHIBIT LONG-TERM POTENTIATION (LTP) INDUCTION AND THERAPEUTIC USES THEREOF” (The Regents of the University of Colorado, A Body Corporate, priority 2023, published 2026).

The target of one assay is purified CaMKIIα (Homo sapiens, UniProt Q9UQM7). The assay can be described thus: In vitro kinase reactions with purified CaMKIIα (GluA1 S831, T286, GluN2B S1303 phosphorylation). The format is biochemical. Also on record: made in house; host or cells: baculovirus/Sf9 (CaMKIIα); BL21 bacteria (CaM). The conditions noted are these: for Ki: 1 mM ATP, 30° C., AS283 0.41-10 μM, Cheng-Prusoff with Km ATP 33.3 μM. As for the experimental part: In a series of exemplary methods, an in vitro kinase assay was used where purified CaMKIIα is incubated at 30° C. with GST-GluA1 alongside ATP. CaMKIIα normally phosphorylates S831 on the GluA1 subunit and this phosphorylation can be measured as a readout of CaMKIIα enzymatic activity (see e.g., FIG. 8B). […] In another exemplary method, binding of purified CaMKIIα to immobilized GST-GluN2B-c was induced by Ca^2+/CaM in the presence of a vehicle (none), 4 mM ADP or with […] AS105. […] At the same time, two exemplary methods were performed to observe ionomycin or chemical LTP (cLTP) induced co-localization of CaMKII and GluN2B either in HEK293 cells co-expressing GFP-CaMKII and mCherry-2BC or dissociated rat hippocampal cultures expressing GFP-CaMKII and mCh-PSD95 intrabody. HEK293 cells, incubating with vehicle or 10 μM AS105, were subjected to ionomycin. Hippocampal cultures, also incubating with either vehicle or 10 μM AS105, were treated with a chemical LTP (cLTP) stimulus (e.g., 100 μM glutamate, 10 μM glycine for 45 seconds). Confocal microscopy images were taken before and after each stimulus.
Therefore, in another exemplary method, the ability of AS283 to selective inhibit CAMKII enzymatic activity without interfering with its binding to GluN2B was tested. In a first method, in vitro kinase reactions were performed at 30° C. in 1 mM ATP measuring purified CaMKIIα phosphorylation of GST-GluA1 S831 with varying concentrations of AS283 (0.41-10 μM).
One possible mechanism by which AS283 could enhance GluN2B binding more than ATP is by suppressing CaMKII-mediated phosphorylation of GluN2B at S1303, as this phosphorylation within the CaMKII binding site on GluN2B reduces CaMKII binding.
In vitro phosphorylation assays. CaMKII-mediated phosphorylation of GluA1 S831 was measured by in vitro kinase reaction with purified GST-GluA1 c-terminal tail. Reactions contained 40 nM CaMKII (or water for negative controls), 1 μM GST-GluA1, 50 mM PIPES pH 7.1, 2 mM CaCl2), 10 mM MgCl2, 1 μM calmodulin, 1-4 mM ATP, and 1 PM of okadaic acid. Reactions were done at 30° C. for 20 s; reactions were stopped by adding SDS-loading buffer and incubation in a boiling water bath for 5 min. GST, phospho-S831, CaMKII, phospho-T286, or phospho-S1303 were detected in the samples by immunoblot analysis.
Km and Ki determination. The inhibition constant Ki was calculated using the Cheng-Prusoff equation for competitive inhibition: Ki=IC50/(1+[ATP]/Km).

The target in assay [1] is T1, CaMKII F89G binding to GluN2B in HEK cells (Homo sapiens, UniProt Q9UQM7, F89G).
T1 construct: expressed in transfected cells; host or cells: HEK cells
The assay can be described thus: Ionomycin-induced co-localization of GFP-CaMKII F89G and mCh-GluN2B in HEK cells. The format is cell-based. The conditions noted are these: 10 μM NM-PP1. As to the method: This conclusion also predicts that the LTP stimulus-induced movement of CaMKII to excitatory synapses should be (i) impaired in the CaMKII F89G mutant; but (ii) normalized by pharmacogenetic rescue with NM-PP1. Indeed, both predictions were observed experimentally (FIGS. 4D-4E).
Live imaging of HEK cells. HEK cells were grown and transfected with expression vectors for GFP-CaMKII mutants and pDisplay-mCh-GluN2B-c tail (2BC) as previously described; the GluN2B construct used included a S1303A mutation to avoid potential complications by differential phosphorylation of this regulatory site in the different conditions with or without kinase inhibitors. GFP-CaMKII colocalization with GluN2B in response to a Ca^2+ stimulus induced by 10 μM ionomycin was monitored for 5-10 min at 32° C. in imaging buffer (0.87× Hanks Balanced Salt Solution, 25 mM Hepes pH 7.4, 2 mM glucose, 2 mM CaCl2), 1 mM MgCl2) by fluorescence microscopy. Images were acquired on a Zeiss Axiovert 200M equipped with a climate control chamber, using SlideBook software (Intelligent Imaging Innovations). Colocalization analysis was performed by calculating the Pearson's correlation (correlation index) of pDisplay-mCh-2BC and GFP-CaMKII within the cytoplasm of HEK cells after background subtraction.

Like-named read-outs stand apart in the source and are kept apart here.

T1 sequence (Q9UQM7 whole entry F89G): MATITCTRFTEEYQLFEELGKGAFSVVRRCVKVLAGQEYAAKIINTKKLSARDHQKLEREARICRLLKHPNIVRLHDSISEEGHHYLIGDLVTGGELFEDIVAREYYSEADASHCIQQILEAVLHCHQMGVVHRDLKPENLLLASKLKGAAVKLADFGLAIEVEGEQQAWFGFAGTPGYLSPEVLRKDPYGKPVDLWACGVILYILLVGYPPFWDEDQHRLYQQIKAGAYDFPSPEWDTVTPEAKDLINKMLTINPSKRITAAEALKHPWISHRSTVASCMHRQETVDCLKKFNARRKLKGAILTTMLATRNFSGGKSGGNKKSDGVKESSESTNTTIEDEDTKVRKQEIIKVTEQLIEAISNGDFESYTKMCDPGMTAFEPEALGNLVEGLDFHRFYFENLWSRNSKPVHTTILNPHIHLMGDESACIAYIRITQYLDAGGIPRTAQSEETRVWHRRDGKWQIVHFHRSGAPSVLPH
T1 sequence (Q13224 836-1484 S1303A partner limits assumed): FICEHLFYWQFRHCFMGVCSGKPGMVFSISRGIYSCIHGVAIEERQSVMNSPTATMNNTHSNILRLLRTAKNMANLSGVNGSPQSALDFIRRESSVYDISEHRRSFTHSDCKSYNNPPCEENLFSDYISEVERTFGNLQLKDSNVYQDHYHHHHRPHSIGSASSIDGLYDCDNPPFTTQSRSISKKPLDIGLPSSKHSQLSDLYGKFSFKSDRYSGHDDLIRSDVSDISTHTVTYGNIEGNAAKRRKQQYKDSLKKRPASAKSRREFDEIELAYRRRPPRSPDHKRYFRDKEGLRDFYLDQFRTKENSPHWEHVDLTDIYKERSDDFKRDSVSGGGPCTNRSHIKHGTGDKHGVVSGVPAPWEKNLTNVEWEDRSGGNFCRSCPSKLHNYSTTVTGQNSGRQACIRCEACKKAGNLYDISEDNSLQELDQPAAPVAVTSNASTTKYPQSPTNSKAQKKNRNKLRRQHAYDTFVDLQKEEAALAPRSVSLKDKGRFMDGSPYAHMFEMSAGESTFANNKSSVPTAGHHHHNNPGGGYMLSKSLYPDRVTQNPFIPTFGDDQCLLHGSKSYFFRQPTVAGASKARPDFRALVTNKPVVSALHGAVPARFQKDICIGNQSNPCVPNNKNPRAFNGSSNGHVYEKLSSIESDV

On to `NCCNc1cccc(-c2ccnc3[nH]c4ccccc4c23)c1` [AS283], for which the Ki on purified CaMKIIα (read-out: apparent Ki, autophosphorylation of T286 (pT286)) is 71 nM; on purified CaMKIIα (read-out: apparent Ki, phosphorylation of GluA1 S831 (pS831)) it was 17 nM. For the same molecule, on purified CaMKIIα (purified CaMKII and GST-2BC), the “CaMKII-mediated S1303 phosphorylation of wild type GluN2B C-terminus” value is “inhibited the CaMKII-mediated S1303 phosphorylation”.

For `CC(C)(C)n1nc(Cc2cccc3ccccc23)c2c(N)ncnc21` [NM-PP1], the “binding of CaMKII F89G to GluN2B in HEK cells after ionomycin” value in assay [1] is reported as “fully enabled binding”. The “effect on pT286 of CaMKII wildtype” value on purified CaMKIIα (in vitro kinase reaction in ATP) is recorded as “did not affect pT286”.
